pKd, pKi: −log10 of the molar value.
Columns and labels:
adrenaline α1 receptor = test: Affinity for adrenaline α1 receptor: inhibition of 3H-Prazosin binding to rat cerebral cortex membrane fraction; parameters: species or system rat (male SD strain); conditions: for pKi: 3H-Prazosin, rat cerebral cortex membrane, 25° C. 30 min, tested as hydrochloride salt
Description: A male SD strain rat (7-week old; Charles River) was decapitated, and brain was taken out therefrom quickly. Cerebral cortex of the rat was separated and extracted at […] under ice cooling. The extracted cerebral cortex was frozen at -80° C. for 24 hours or longer. This frozen system was gradually thawed under ice cooling and then, 50 mM Tris-HCl buffer (pH 7.4) was added to the brain under ice cooling to obtain a suspension. The resultant suspension was homogenized, and then subjected to centrifugation at 48,000 g for 15 minutes, to thereby obtain a precipitate. The precipitate thus obtained was washed twice and resuspended in the same Tris-HCl buffer as used above. […] The total volume amount of the reaction mixture was 1 ml. The resultant reaction mixture was subjected to suction filtration using a Whatman GF/C filter, and the filter was washed three times in 50 mM Tris-HCl buffer (pH 7.4, 4 ml), transferred to a vial and then, the radioactivity of Prazosin absorbed on the filter was determined using a liquid scintillation counter. […] On the other hand, substantially the same procedure as mentioned above was repeated, except that 100 nM (final concentration) Prazosin was added to the ^3 H-Prazosin and ascorbic acid. The radioactivity of ^3 H-Prazosin adsorbed on the filter was determined in the same manner as mentioned above. […] Further, substantially the same procedure as mentioned above was repeated, except that, instead of Prazosin, a test compound was used in a predetermined concentration. The radioactivity of ^3 H-Prazosin adsorbed on the filter was determined in the same manner as mentioned above. […] The binding inhibition ratios were plotted, taking the logarithmic value of the concentration of the test compound as the abscissa value, and the binding inhibition ratio as the ordinate value. Then, a curve was drawn by the non-linear least square method.

Suncus murinus = test: Activities against emesis: acceleration-stimulus induced emesis in suncus; type: in vivo; conditions: stimulus (4 cm, 1 Hz) 30 minutes after, 4 suncus, hydrochloride salt, physiological saline 0.55
Source text: The activities of individual compounds against emesis were examined using Suncus murinus. Suncus murinus is a small animal belonging to the Soricidae family. It has been known that suncus is likely to suffer from motion sickness and is susceptible to occurrence of emesis [see "Seitai-no-kagaku (Science of living body)", 42, 538 (1990)]. Suncus is likely to show symptoms like the symptoms of human motion sickness under the stimulus of simple acceleration, finally leading to the occurrence of emesis. It has been known that a drug, such as cisplatin, has an emesis-inducing activity.
In this test, test compounds were individually administered intraperitoneally to suncus. 30 minutes after the administration, acceleration-stimulus (amplitude: 4 cm; frequency; 1 Hz) was given to the suncus, and the suncus thus treated was observed as to whether emesis occurred or not.
Each of the compounds (1) used in the above tests was tested in the form of a hydrochloride salt thereof, and represented in Table 3 by the compound number used in Examples described below.

Structure (SMILES) | pKi (adrenaline α1 receptor) | Time for occurrence of emesis (Suncus murinus; 1 mg/kg intraperitoneally) | also measured
O=C(NCCCCNCC1Cc2ccccc2O1)c1cccs1 (single isomer, unassigned; (-)) [Compound 111A, (-)-2-{N-[4-(2-thienylcarbonylamino)butyl]}aminomethyl-2,3-dihydrobenzo-[b]furan] | 6.80 | – | –
CN(CCCCNC(=O)c1cccs1)CC1Cc2ccccc2O1 (single isomer, unassigned; (-)) [Compound 116A, (-)-2-{N-methyl-N-[4-(2-thienylcarbonylamino)butyl]}aminomethyl-2,3-dihydrobenzo[b]furan] | 6.28 | – | –
CCN(CCCCNC(=O)c1cccs1)CC1Cc2ccccc2O1 (single isomer, unassigned; (-)) [Compound 117A, (-)-2-{N-ethyl-N-[4-(2-thienylcarbonylamino)butyl]}aminomethyl-2,3-dihydrobenzo[b]furan] | 6.24 | – | –
O=C(NCCCCNCC1Cc2ccccc2O1)c1cccc2ccccc12 (centres unmarked) [Compound 101B, 2-{N-[4-(1-naphthoylamino)butyl]}aminomethyl-2,3-dihydrobenzo[b]furan] | 6.82 | – | –
O=C(NCCCCNCC1Cc2ccccc2O1)c1ccc2ccccc2c1 (centres unmarked) [Compound 102B, 2-{N-[4-(2-naphthoylamino)butyl]}aminomethyl-2,3-dihydrobenzo[b]furan] | 6.85 | – | –
O=C(NCCCCNCC1Cc2ccccc2O1)c1cccs1 (centres unmarked) [Compound 106B, 2-{N-[4-(2-thienylcarbonylamino)butyl]}aminomethyl-2,3-dihydrobenzo[b]furan] | 6.62 | 8.50 min. sec | –
O=C(NCCCCNCC1Cc2ccccc2O1)c1ccsc1 (centres unmarked) [Compound 107B, 2-{N-[4-(3-thienylcarbonylamino)butyl]}aminomethyl-2,3-dihydrobenzo[b]furan] | 6.64 | – | –
O=C(NCCCCNCC1Cc2ccccc2O1)c1ccco1 (centres unmarked) [Compound 108B, 2-{N-[4-(2-furylcarbonylamino)butyl]}aminomethyl-2,3-dihydrobenzo[b]furan] | – | 4.56 min. sec | –
O=C(NCCNCC1Cc2ccccc2O1)c1cccc2ccccc12 (centres unmarked) [Compound 112B, 2-{N-[2-(1-naphthoylamino)ethyl]}aminomethyl-2,3-dihydrobenzo[b]furan] | 6.49 | – | Time for occurrence of emesis (Suncus murinus; 3 mg/kg intraperitoneally): 6.03 min. sec
O=C(NCCCNCC1Cc2ccccc2O1)c1cccc2ccccc12 (centres unmarked) [Compound 113B, 2-{N-[3-(1-naphthoylamino)propyl]}aminomethyl-2,3-dihydrobenzo[b]furan] | 7.02 | 7.44 min. sec | –
O=S(=O)(NCCCCNCC1Cc2ccccc2O1)c1cccc2ccccc12 (centres unmarked) [Compound 114B, 2-{N-[4-(1-naphthylsulfonylamino)butyl]}aminomethyl-2,3-dihydrobenzo[b]furan] | 7.02 | 3.50 min. sec | –
O=S(=O)(NCCCCNCC1Cc2ccccc2O1)c1ccc2ccccc2c1 (centres unmarked) [Compound 115B, 2-{N-[4-(2-naphthylsulfonylamino)butyl]}aminomethyl-2,3-dihydrobenzo[b]furan] | – | 5.56 min. sec | –
COc1cc2nc(N3CCN(C(=O)c4ccco4)CC3)nc(N)c2cc1OC [^3 H-Prazosin, reference compound] | – | – | pKd (adrenaline α1 receptor; radioactive ligand, used in Ki calculation): 9.88
